Test system: DSS-induced colitis
Assay: DSS-induced colitis in mice
Format: in vivo, C57BL/6 mice
Conditions: 3% DSS in water, daily gavage for 7 days

Nc1ccc(O)c(C(=O)O)c1 [5-ASA, 5-Aminosalicylic acid]
weight loss: does not reduce the severity of weight loss
Intestinal myeloperoxidase (MPO) activity (colon): has no effect on the basal MPO levels
